Data: US11344510B2, “Arylcyclohexylamine derivatives and their use in the treatment of psychiatric disorders” (Gilgamesh Pharmaceuticals, Inc., priority 2019, dated 2022)
Entries after “also recorded” stand apart in the source; their conditions may differ. Where two headings read alike, the source gives them in different places.

How the values were obtained:
MK-801 site of NMDAR = MK-801 site of NMDAR (Rattus norvegicus, UniProt P35439); details: read-out: NMDAR Ki ± SEM, from Ebert et al. 1997; cited from earlier work
CSDS-susceptible mice = test: Behavioral tests after chronic social defeat stress (CSDS); assay type: in vivo, C57BL/6 mice; details: 10 mg/kg i.p., single dose
[1] = biological target: MK-801 binding site of the N-methyl-D-aspartate receptor (NMDAR); test: NMDAR radioligand binding with [3H]MK-801, Method A; set-up: species or system Wistar rat; details: MK-801 site, Method A, Wistar rat brain (minus cerebellum), 5.0 nM [3H]MK-801; read-out: NMDAR Ki ± SEM
Procedure: Radioligand Binding—Method A. Affinity of the test compounds for NMDAR was determined in radioligand binding experiments with [^3H]MK-801 by Eurofins Panlabs, Inc., using methods adapted from the literature (Javitt et al. 1987; Reynolds et al. 1989) and under the conditions described in Table 12.

[2] = HLM stability (High Activity); assay type: in vitro ADME; details: both sexes, human, liver microsomes, pH 7.4, Condition 2 (High Activity), 1.0 mg protein/mL
Outline: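 Pooled male and female human liver microsomes, 1.0 mg protein/mL, in 100 mM PBS pH 7.4 with NADPH-regenerating system; compound 1 μM at 37° C, five time points over 60 min. Parent remaining by LC-MS/MS; kel, t1/2 and Clint from linear regression of ln(AUC) versus time.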

[3] = Oral bioavailability in mice, Method A; assay type: in vivo; details: CD-1 mice; for F: 10 mg/kg; for half-life / Cmax / AUC(0-inf): male, mouse
Procedure: Animals. Male CD-1 mice were used in these studies Animals were randomly assigned to treatment groups and were fasted for 4 h before dosing.
Drugs. Test compounds were dissolved in normal saline (ketamine) or de-ionized water (other compounds) and administered intravenously (iv) or orally (po) at a dose of 10 mg/kg (calculated based on freebase) and at a volume of 5 mL/kg body weight. Compounds were tested as the racemates (indicated by “rac” nomenclature) or pure enantiomers (indicated by “R” or “S” nomenclature).
Sample Collection and Bioanalysis. Blood samples were collected under 2,2,2-tribromoethanol anesthesia (150 mg/kg, ip) from the orbital sinus at 0.083, 0.25, 0.5, 1, 2, 4, 8 and 24 h (4 animals per time point) into microcontainers containing K2EDTA Immediately after collection of blood, mice were euthanized by cervical dislocation and brain samples were collected at the same time points. All samples were immediately processed, flash-frozen, and stored at −70° C. until subsequent analysis. Plasma samples were separated by centrifugation of whole blood and aliquots (50 μL) were mixed with 200 μL of internal standard solution (400 ng/mL in 1:1 v/v CH3CN:MeOH). After mixing by pipetting and centrifuging for 4 min at 6000 rpm, 0.5 μL of each supernatant was analyzed for drug using a fit-for-purpose liquid chromatography-tandem mass spectrometry (LC-MS/MS) method, with authentic samples of each analyte used for calibration and identification. Brain samples (weight 100 mg±1 mg) were dispersed in 500 μL, of internal standard solution (400 ng/mL in 4:1 v/v MeOH:water) using zirconium oxide beads (115 mg±5 mg) in The Bullet Blender® homogenizer for 30 s at speed 8. After homogenization, the samples were centrifuged for 4 min at 14,000 rpm and 0.5 μL of each supernatant was analyzed for drug using a fit-for-purpose LC-MS/MS method, with authentic samples of each analyte used for calibration and identification.
Data Analysis. The drug concentrations of samples below the lower limit of quantitation (LLOQ) were designated as zero. Pharmacokinetic data analysis was performed using noncompartmental, bolus injection or extravascular input analysis models in WinNonlin 5.2 (PharSight). Data points below LLOQ were presented as missing to improve validity of t112 calculations.

[4] = HLM stability (Low Activity); assay type: in vitro ADME; details: both sexes, human, liver microsomes, pH 7.4, Condition 1 (Low Activity), 0.42 mg protein/mL
Procedure: For some of the compounds, stability was tested under two microsomal incubation conditions, one with normal enzymatic activity (low activity) and one with higher enzymatic loading, longer incubation time, and lower compound concentration (high activity) intended to increase metabolic lability.
HLM Stability (Low Activity). Pooled HLM from adult male and female donors (XenoTech H0630) were used. Microsomal incubations were carried out in 96-well plates in 5 aliquots of 40 μL, each (one for each time point). Liver microsomal incubation medium consisted of PBS (100 mM, pH 7.4), MgCl2 (3.3 mM), NADPH (3 mM), glucose-6-phosphate (5.3 mM), and glucose-6-phosphate dehydrogenase (0.67 units/mL), with 0.42 mg of liver microsomal protein per mL. Control incubations were performed by replacing the NADPH-cofactor system with PBS. Test compounds (2 μM, final solvent concentration 1.6%) were incubated with microsomes at 37° C., shaking at 100 rpm. Incubations were performed in duplicate. Five time points over 40 minutes were analyzed. The reactions were stopped by adding 12 volumes of 90% acetonitrile-water to incubation aliquots, followed by protein sedimentation by centrifugation at 5500 rpm for 3 minutes. Supernatants were analyzed for parent compound remaining using a fit-for-purpose liquid chromatography-tandem mass spectrometry (LC-MS/MS) method, with authentic samples of each analyte used for identity confirmation.
(§1) Data Analysis. The elimination constant (kel), half-life (t1/2) and intrinsic clearance (Clint) were determined in a plot of […] versus time, using linear regression analysis.

mice (forced swim test) = test: Forced swim test in mice, 30-minute pre-treatment; assay type: in vivo, Swiss Webster mice; details: s.c., 30 minutes before test, relative to vehicle
Procedure: Animals. Male Swiss Webster mice, aged 4-5 weeks (body weight 25-30 g, Envigo) were used in the experiments Animals were housed in groups of 4-5 under controlled temperatures and 12-hour light/dark cycles, with ad libitum food (Teklad 7001 rodent diet) and water. These studies were carried out in strict accordance with the recommendations in the Guide for the Care and Use of Laboratory Animals of the National Institutes of Health. All efforts were made to minimize suffering.
Drugs and Drug Administration. Imipramine hydrochloride was administered intraperitoneally (i.p.) at a dose of 30 mg/kg. Other compounds were tested as the racemates (indicated by “rac” nomenclature) and were administered subcutaneously (s.c.) as the hydrochloride salts. Normal saline was used as the vehicle and all compounds were administered at a volume of 10 mL/kg, 30 minutes before behavioral testing.
Forced Swim Test (FST). Group size was n=10 per treatment Animals were acclimated to the testing room 30 minutes prior to behavioral testing. Mice were placed individually in a cylinder of water measuring 5 inches wide by 10 inches tall and maintained at 24-25° C. The activity of each mouse was recorded for 6 minutes using Noldus Ethovision tracking software, with periods of inactivity being automatically quantified.
Statistical Analysis. The data points shown are the mean±standard error of the mean (SEM). Analysis was performed using GraphPad Prism 6. Indicated statistical comparisons represent the results of unpaired, two-tailed t tests relative to vehicle (not corrected for multiple comparisons).

[5] = RLM stability (High Activity); assay type: in vitro ADME, Sprague Dawley rats
Procedure: (§2) RLM Stability (High Activity). Pooled RLM from male Sprague Dawley rats (XenoTech R1000, lot #1910100) were used. Microsomal incubations were carried out in 96-well plates in 5 aliquots of 40 μL each (one for each time point). Liver microsomal incubation medium consisted of PBS (100 mM, pH 7.4), MgCl2 (3.3 mM), NADPH (3 mM), glucose-6-phosphate (5.3 mM), and glucose-6-phosphate dehydrogenase (0.67 units/mL), with 1.0 mg of liver microsomal protein per mL. Control incubations were performed by replacing the NADPH-cofactor system with PBS. Test compounds (1 μM, final solvent concentration 1.6%) were incubated with microsomes at 37° C., shaking at 100 rpm. Incubations were performed in duplicate. Five time points over 60 minutes were analyzed. The reactions were stopped by adding 9 volumes of 90% acetonitrile-water to incubation aliquots, followed by protein sedimentation by centrifugation at 5500 rpm for 3 minutes. Supernatants were analyzed for parent compound remaining using a fit-for-purpose liquid chromatography-tandem mass spectrometry (LC-MS/MS) method, with authentic samples of each analyte used for identity confirmation.
as §1

[6] = Formation of metabolites 11R/11S in RLM (High Activity conditions); assay type: in vitro ADME, Sprague Dawley rats; details: LC-MS/MS
Procedure: as §2, with “The reactions were stopped by adding 9 volumes of 90% acetonitrile-water to incubation aliquots, followed by protein sedimentation by centrifugation at 5500 rpm for 3 minutes.” left out
This condition was also used for experiments measuring the formation of metabolite 11R from compounds 14R and 88R and formation of metabolite 11S from compounds 14S and 88S. The concentrations of 11R and 11S formed during the incubations were quantified using a fit-for-purpose liquid chromatography-tandem mass spectrometry (LC-MS/MS) method, with authentic samples of each analyte used for calibration and identity confirmation.

[7] = biological target: T1, norepinephrine transporter (NET) (Homo sapiens, UniProt P23975); test: Fluorescent substrate uptake inhibition, NET; assay type: cell-based; details: 10 μM, HEK293 cells expressing NET
T1 construct: expressed in transfected cells; host or cells: HEK293

[8] = biological target: T2, vesicular monoamine transporter 2 (VMAT2) (Homo sapiens, UniProt Q05940); test: Fluorescent substrate uptake inhibition, VMAT2; assay type: cell-based; details: 10 μM, transfected cells
T2 construct: expressed in transfected cells

[9] = biological target: MK-801 binding site of the N-methyl-D-aspartate receptor (NMDAR); test: NMDAR radioligand binding with [3H]MK-801, Method B; set-up: species or system Sprague Dawley rat; details: MK-801 site, Method B, male Sprague Dawley rat cortex, 5.0 nM [3H]MK-801; read-out: NMDAR Ki ± SEM
Procedure: Radioligand Binding—Method B. Affinity of the test compounds for NMDAR was determined in radioligand binding experiments with [^3H]MK-801 by WuXi AppTec (Hong Kong) Limited, under the conditions described in Table 13.

[10] = MLM stability (High Activity); assay type: in vitro ADME, BALB/c mice; details: male, BALB/c, mouse, liver microsomes, pH 7.4, Condition 2 (High Activity), 1.0 mg protein/mL
Outline: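 Pooled male BALB/c mouse liver microsomes (1.0 mg/mL) in 100 mM PBS pH 7.4 with NADPH-regenerating system; compound 1 μM, 37 °C, five time points over 60 min, duplicate; NADPH-free controls. Parent remaining by LC-MS/MS; kel, t1/2 and Clint from linear regression of ln(AUC) versus time.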

[11] = biological target: T3, dopamine transporter (DAT) (Homo sapiens, UniProt Q01959); test: Fluorescent substrate uptake inhibition, DAT; assay type: cell-based; details: 10 μM, CHO cells expressing DAT
T3 construct: expressed in transfected cells; host or cells: CHO (uptake)

[12] = biological target: T4, serotonin transporter (SERT) (Homo sapiens, UniProt P31645); test: Fluorescent substrate uptake inhibition, SERT; assay type: cell-based; details: 10 μM, HEK293 cells expressing SERT
T4 construct: expressed in transfected cells; host or cells: HEK293

[13] = male, Sprague Dawley, rat, liver microsomes, pH 7.4, Condition 2 (High Activity), 1 μM, 1.0 mg protein/mL

T1 sequence (P23975 whole entry, species assumed): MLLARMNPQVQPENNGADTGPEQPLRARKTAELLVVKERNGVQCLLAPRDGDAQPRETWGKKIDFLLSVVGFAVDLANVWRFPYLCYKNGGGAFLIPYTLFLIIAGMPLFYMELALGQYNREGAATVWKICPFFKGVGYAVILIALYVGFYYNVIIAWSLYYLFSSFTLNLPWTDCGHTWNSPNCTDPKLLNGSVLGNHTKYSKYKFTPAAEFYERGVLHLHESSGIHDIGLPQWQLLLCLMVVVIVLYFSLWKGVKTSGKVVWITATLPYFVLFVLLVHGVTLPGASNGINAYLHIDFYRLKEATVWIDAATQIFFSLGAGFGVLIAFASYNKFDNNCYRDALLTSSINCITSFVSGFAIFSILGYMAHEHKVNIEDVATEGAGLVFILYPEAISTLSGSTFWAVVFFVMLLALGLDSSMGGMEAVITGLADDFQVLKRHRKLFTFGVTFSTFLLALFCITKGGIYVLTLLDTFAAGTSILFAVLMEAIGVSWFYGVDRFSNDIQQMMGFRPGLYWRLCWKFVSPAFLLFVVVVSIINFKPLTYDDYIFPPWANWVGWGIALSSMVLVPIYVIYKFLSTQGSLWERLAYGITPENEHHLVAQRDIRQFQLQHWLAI
T4 sequence (P31645 whole entry, species assumed): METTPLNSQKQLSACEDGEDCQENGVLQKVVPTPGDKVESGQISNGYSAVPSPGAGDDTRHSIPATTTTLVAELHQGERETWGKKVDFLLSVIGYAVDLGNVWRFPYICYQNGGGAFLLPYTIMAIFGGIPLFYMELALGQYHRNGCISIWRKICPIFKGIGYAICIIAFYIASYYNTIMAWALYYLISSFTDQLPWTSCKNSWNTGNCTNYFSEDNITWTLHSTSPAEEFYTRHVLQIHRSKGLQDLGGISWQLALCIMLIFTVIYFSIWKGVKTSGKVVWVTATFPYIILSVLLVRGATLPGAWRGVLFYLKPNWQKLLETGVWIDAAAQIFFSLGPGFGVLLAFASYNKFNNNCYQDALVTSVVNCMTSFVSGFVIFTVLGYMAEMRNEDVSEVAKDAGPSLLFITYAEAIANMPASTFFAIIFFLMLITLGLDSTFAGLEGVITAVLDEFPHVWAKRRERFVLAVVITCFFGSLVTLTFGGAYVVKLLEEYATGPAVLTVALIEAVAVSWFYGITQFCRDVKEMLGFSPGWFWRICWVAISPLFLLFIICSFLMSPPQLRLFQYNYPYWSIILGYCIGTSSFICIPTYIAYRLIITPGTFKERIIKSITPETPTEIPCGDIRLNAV
T3 sequence (Q01959 whole entry, species assumed): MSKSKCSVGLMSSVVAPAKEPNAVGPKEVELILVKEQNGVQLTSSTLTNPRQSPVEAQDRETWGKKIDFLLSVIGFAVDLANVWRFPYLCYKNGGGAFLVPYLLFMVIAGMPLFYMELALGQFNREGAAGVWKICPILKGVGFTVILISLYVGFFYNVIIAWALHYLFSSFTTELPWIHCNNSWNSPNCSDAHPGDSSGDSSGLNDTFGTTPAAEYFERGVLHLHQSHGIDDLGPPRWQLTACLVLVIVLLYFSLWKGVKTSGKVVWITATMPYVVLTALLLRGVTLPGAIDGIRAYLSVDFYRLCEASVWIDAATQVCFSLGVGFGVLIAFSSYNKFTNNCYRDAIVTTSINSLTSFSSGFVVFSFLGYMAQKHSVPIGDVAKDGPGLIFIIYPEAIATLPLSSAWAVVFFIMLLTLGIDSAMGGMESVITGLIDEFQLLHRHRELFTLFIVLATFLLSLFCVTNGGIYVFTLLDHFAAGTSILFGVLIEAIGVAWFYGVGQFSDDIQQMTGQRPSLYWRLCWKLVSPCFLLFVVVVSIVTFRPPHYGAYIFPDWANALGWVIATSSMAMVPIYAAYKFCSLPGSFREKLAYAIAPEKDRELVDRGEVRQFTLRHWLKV
T2 sequence (Q05940 whole entry, species assumed): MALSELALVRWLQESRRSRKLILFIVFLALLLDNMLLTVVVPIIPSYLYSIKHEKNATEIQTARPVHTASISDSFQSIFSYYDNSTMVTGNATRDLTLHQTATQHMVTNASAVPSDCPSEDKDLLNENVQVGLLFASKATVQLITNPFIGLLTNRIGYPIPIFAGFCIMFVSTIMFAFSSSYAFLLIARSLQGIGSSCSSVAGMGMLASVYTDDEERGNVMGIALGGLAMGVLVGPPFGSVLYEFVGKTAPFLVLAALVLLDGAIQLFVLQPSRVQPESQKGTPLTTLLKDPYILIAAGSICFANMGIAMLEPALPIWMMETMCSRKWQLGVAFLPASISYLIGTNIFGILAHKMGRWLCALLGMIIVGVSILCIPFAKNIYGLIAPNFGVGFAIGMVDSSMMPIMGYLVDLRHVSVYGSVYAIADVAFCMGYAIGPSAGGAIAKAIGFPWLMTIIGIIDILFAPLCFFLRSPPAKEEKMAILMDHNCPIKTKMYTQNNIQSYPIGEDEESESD

CN[C@]1(c2ccccc2Cl)CCCCC1=O (single isomer, unassigned) [(S)-ketamine, ketamine]
Ki (MK-801 site of NMDAR): 300 ± 13 nM

CNC1(c2ccccc2F)CCCCC1=O (racemic) [Compound 35rac, 2-(2-Fluorophenyl)-2-(methylamino)cyclohexan-1-one]
antidepressant-like activity in behavioral tests after CSDS (TST, FST, SPT) (CSDS-susceptible mice): superior to 37rac; also recorded: reversed the pro-depressive effects | Ki [1]: 1820 nM | half-life at 1 μM [2]: 148 min | microsomal CLint at 1 μM [2]: 5 µL/min/mg | AUC0-inf (iv) ([3]; brain, 10 mg/kg iv): 186,000 ng*min/g | AUC0-inf (po) ([3]; brain, 10 mg/kg po): 34,200 ng*min/g | F ([3]; calculated based on brain exposure): 18% | half-life ([3]; brain, 10 mg/kg iv, read-out: t1/2 (iv)): 16.1 min | Cmax ([3]; brain, 10 mg/kg po): 1840 ng/g | half-life ([3]; brain, 10 mg/kg po, read-out: t1/2 (po)): 19.1 min | AUC(0-inf) ([3]; plasma, 10 mg/kg iv, read-out: AUC0-inf (iv) (converted)): 1300 ng·h/mL | half-life ([3]; plasma, 10 mg/kg iv, read-out: t1/2 (iv)): 15.1 min | Cmax ([3]; plasma, 10 mg/kg po): 618 ng/mL | AUC(0-inf) ([3]; plasma, 10 mg/kg po, read-out: AUC0-inf (po) (converted)): 363 ng·h/mL | half-life ([3]; plasma, 10 mg/kg po, read-out: t1/2 (po)): 19.7 min | F ([3]; plasma, absolute oral bioavailability): 28% | half-life at 2 μM [4]: 171 min | microsomal CLint at 2 μM [4]: 10 µL/min/mg | immobility time in FST (mice (forced swim test)): did not have effects

[2H]C([2H])([2H])N[C@]1(c2ccccc2)CCCCC1=O [Compound 88S, (S)-2-((methyl-d3)amino)-2-phenylcyclohexan-1-one]
metabolic stability compared to non-deuterated counterparts 14R and 14S ([5]; High Activity): increased metabolic stability | half-life at 1 μM [5, 13]: 52.8 min | microsomal CLint at 1 μM [5, 13]: 13 µL/min/mg | formation of metabolites 11R and 11S compared to non-deuterated counterparts [6]: attenuated formation; also recorded: decreased formation | inhibition at 10 µM [7]: 21.6% | inhibition at 10 µM [8]: -6% | half-life at 1 μM [2]: 167 min | microsomal CLint at 1 μM [2]: 4 µL/min/mg | Ki [9]: 800 nM | half-life at 1 μM [10]: 111 min | microsomal CLint at 1 μM [10]: 6 µL/min/mg | inhibition at 10 µM [11]: 18.6% | inhibition at 10 µM [12]: 28.2%

CN[C@@]1(c2ccccc2Cl)CCCCC1=O (single isomer, unassigned) [(R)-ketamine, ketamine]
Ki (MK-801 site of NMDAR): 1400 ± 100 nM
